The values below come from ChEMBL document CHEMBL3638901, “Thienopyrazole derivative having PDE7 inhibitory activity” (2014).

Sequence of High affinity 3',5'-cyclic-AMP phosphodiesterase 7A (Q13946 whole entry): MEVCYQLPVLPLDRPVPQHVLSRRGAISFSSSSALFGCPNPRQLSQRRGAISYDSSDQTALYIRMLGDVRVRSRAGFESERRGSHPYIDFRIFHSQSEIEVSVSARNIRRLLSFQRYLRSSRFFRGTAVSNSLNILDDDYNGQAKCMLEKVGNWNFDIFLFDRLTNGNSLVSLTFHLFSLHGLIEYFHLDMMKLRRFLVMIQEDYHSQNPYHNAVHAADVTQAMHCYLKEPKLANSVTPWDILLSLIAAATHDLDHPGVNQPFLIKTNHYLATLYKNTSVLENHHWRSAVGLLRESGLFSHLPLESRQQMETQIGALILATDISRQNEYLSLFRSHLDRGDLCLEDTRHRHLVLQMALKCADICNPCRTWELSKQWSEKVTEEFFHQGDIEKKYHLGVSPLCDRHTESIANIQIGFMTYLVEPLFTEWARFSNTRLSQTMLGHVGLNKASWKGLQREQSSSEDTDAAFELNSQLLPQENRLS

This test addresses High affinity 3',5'-cyclic-AMP phosphodiesterase 7A (Homo sapiens, UniProt Q13946). Briefly: Inhibition Assay: The PDE 7 (phosphodiesterase VII) inhibiting effect of the compounds of the present invention was performed by the following method, which was modified assay method described in Biochemical. Pharmacol. 48(6), 1219-1223 (1994). (1) The active fraction of PDE 7 (phosphodiesterase VII) was obtained. That is, MOLT-4 (obtainable from ATCC as ATCC No. CRL-1582), which was cell line of human acute lymphoblastic […] T cells, was incubated in RPMI1640 culture medium containing 10% fetal bovine serum to obtain 5x10^8 MOLT-4 cells. The cells were collected by centrifugation and suspended with 10 mL of buffer solution A [25 mM of tris-HCl, 5 mM of 2-mercaptoethnol, 2 mM of benzamidine, 2 mM of EDTA, 0.1 mM of 4-(2-aminoethyl)benzensulfonyl hydrochloride; pH 7.5], then homogenized by Polytron homogenizer. The homogenate were centrifuged under 25,000xG for 10 minutes at 4 C. The supernatant was separated and thus obtained supernatant was further centrifuged under 100,000xG for 60 minutes.
Turning to `COc1cc(NC(=O)c2cc3c(C)nn(C4CCCCC4)c3s2)ccc1C(=O)N1CCN(C)CC1`, inhibition was half-maximal at 85 nM (IC50).

Regarding `COc1cc(NC(=O)c2cc3c(C)nn(C4CCCCC4)c3s2)ccc1C(=O)N1CCC(O)CC1`, the midpoint of inhibition, the IC50, lay at 65 nM.

Consider `Cc1nn(C2CCCCC2)c2sc(C(=O)NC3CC[C@@H](C(=O)N(C)C)C3)cc12` (stereo partly specified), for which the IC50 (as a rule, the concentration that gives 50% inhibition) amounted to 13 nM. This IC50 is about 5-fold lower than that of the compound before.

`Cc1nn(C2CCCCC2)c2sc(C(=O)Nc3ccc(N4CCN(C)CC4)c(Cl)c3)cc12`: the IC50 was 55 nM. Against the preceding compound, the IC50 is about 4.2-fold higher.

Compound `Cc1nn(C2CCCCC2)c2sc(C(=O)Nc3ccc(N4CCOCC4)cc3)cc12` registered an IC50 of 34 nM. Compared with the last compound, the IC50 is about 1.6-fold lower.

For `Cc1nn(C2CCOCC2)c2sc(C(=O)N[C@H]3CC[C@H](N4CCOCC4)CC3)cc12`, the IC50 is 24 nM.
